Reference: patent publication US10858443B2, “Synthetic notch protein for modulating gene expression” (TRUSTEES OF BOSTON UNIVERSITY, priority 2017, dated 2020)
“Also recorded” adds a separate entry of the source.

What was measured:
NS3 protease [1] = molecular target: T1, NS3 protease (Hepatitis C virus genotype 1a, UniProt P26664, A1066T/DELINS1218-1635AV/I1179L/T1080A); type: cell-based; conditions: Cho-K1 UAS H2B-Citrine line expressing DBGal4-NS3-TAGal4; drug ~24 hours; flow cytometry (FIG. 18)
HEK 293FT cells [2] = assay: SynNotch background (leaky) activation, SN versus SN-LWF core, HEK 293FT cells; type: cell-based, human
Experimental: FIGS. 31A-31C show reduction of SynNotch leakiness by incorporation of the juxtamembrane LWF motif (FIG. 31A) Schematic of the Notch TMD and LWF motif, slightly modified from to highlight the difference between the original SynNotch core's C-terminus and the modified SynNotch core's C-terminus, where 10 amino acids are added to include the LWF motif (FIGS. 31B and 31C) anti-FITC SynNotch receptors containing SN or SN-LWF as the core domain are expressed and tested in HEK 293FT cells. Cells are either plated on fibronectin alone to test background activation (dashed lines) or on fibronectin with BSA-FITC to activate the receptors (solid lines). FIG. 31A discloses SEQ ID NO: 70. […] Values shown are the percentage of cells in the ON state for each case.
Data herein provides preliminary evidence that inclusion of the LWF motif reduces background activation in SynNotch receptors. In initial experiments, the original SynNotch core design (SN) was compare with a SynNotch core containing the LWF motif (SN-LWF) (FIG. 31A). Each receptor core was test with two different transcription factor intracellular domains (ICD's): Gal4 fused to VP64 (“VP64,” a modest transcriptional activator commonly used in SynNotch) and Gal4 fused to VPR (“VPR,” a strong transcriptional activator, whose strength is penalized by high background activation in SynNotch constructs). […]

NS3 protease [3] = molecular target: T1, NS3 protease; type: cell-based; conditions: for stabilization of full-length dCas9-NS3 TF (immunoblot): drug-treated versus untreated cells
NS3 protease [4] = molecular target: T1, NS3 protease; type: cell-based; conditions: DBGal4-NS3-TAGal4, anti-HA western; intact TF undetectable in untreated controls
NS3 protease [5] = molecular target: T1, NS3 protease; type: cell-based; conditions: 3 μM BILN-2061
NS3 protease [6] = molecular target: T1, NS3 protease; type: cell-based; conditions: increasing concentration of BILN-2061; 100 ng/mL doxycycline
human Notch1 = assay: Dll1-NS3-mCherry ligand presentation and sender/receiver coculture Notch signaling; type: cell-based; conditions: 1.5 μM BILN-2061
Excerpt: FIG. 17C Immunofluorescence staining of fixed (non-permeabilized) cells expressing Dll1-NS3-mCherry. […] FIG. 17D Schematic depiction of trans-cellular signaling between Notch “receiver” cells by Dll1-NS3-mCherry expressing “sender” cells in the absence and presence of drug. FIG. 17E Fluorescence images of cocultured sender and receiver cells. Sender cells expressed the Dll1-NS3-mCherry ligand. Receiver cells constitutively expressed human Notch1 and H2B-Cerulean, and conditionally expressed H2B-Citrine upon up Notch activation. […] The interface between sender and receiver cells colonies is denoted by the white dotted line. FIG. 17F Magnified region from the inset shown in (17E) shown as an overlay with the corresponding transmitted light image.
FIGS. 25A and 25B show images of Dll1-NS3/4A-mCherry mediated cell-cell signaling captured by epifluorescence imaging under 10× magnification. FIG. 25A Sender cells expressing the Dll1-NS3/4A ligand are cultured with receiver cells expressing the Notch transmembrane receptor. Receiver cell population is identified by a constitutively expressed H2B-Cerulean. Notch activation drives reporter activity of H2B-Citrine. Cells are cultured together with or without 1.5 μM BILN-2061 drug for 72 hours before imaging. FIG. 25B […]

CXCR4 = assay: dCas9-NS3-NLS/VPR drug-induced gene upregulation (flow cytometry); type: cell-based, human; conditions: dCas9-NS3-NLS/VPR with sgRNA
Experimental: FIGS. 16A-16E show drug-control over endogenous gene expression using dCas9-NS3-NLSNPR. FIG. 16A Schematic depiction of the drug-inducible stabilization and nuclear localization of dCas9-NS3-NLSNPR. […] An unfused dCas9 domain (160 kDa) is produced in the absence of drug. FIG. 16C Immunostained HeLa cells showing the subcellular localization of the dCas9 domain in the presence or absence of 3 μM BILN-2061. […] FIG. 16D Schematic of the time-dependent dye labeling strategy used to analyze cells expressing SNAP-dCas9-NS3-NLSNPR (top), and corresponding fluorescence images of dye-labeled HeLa cells (bottom). […] Expression of the chemokine receptor was analyzed by staining of cells anti-CXCR4 antibody followed by quantification via flow cytometry.
FIG. 22 sgRNAs targeting the CXCR4 promoter were co-transfected into HEK 293FT alongside DNAs encoding either dCas9-VPR, or dCas9-NS3-NLS/VPR. The extent of CXCR4 upregulation was subsequently quantified by flow cytometry using a fluorescently-labeled anti-CXCR4 antibody. […]
For expression analyses carried out using dCas9-based TFs, HEK 293FT cells were seeded in 48-well plates and transfected at a density of […] cells per well. […] Expression of the chemokine receptor was analysed via flow cytometry using a fluorescently-conjugated CXCR-4 antibody; geometric means were recorded.

HEK 293FT cells [7] = assay: Tension Gauge Tether (TGT) assay of Notch/SynNotch receptor activation; type: cell-based, human; conditions: mCherry reporter, flow cytometry
Excerpt: FIG. 5A-5E depict the use of ruptureable double-stranded DNA tethers. […] One strand of the TGT attaches to a rigid plate through biotin-avidin binding, while the other presents a ligand. The TGT ruptures at a defined force, determined by the orientation of the ligand and the biotin. If the TGT is weaker than the force required to activate the Notch receptor, it ruptures before the LNR domains can be displaced. If it is stronger, the LNR domains are displaced and activation occurs.
(FIG. 33A) TGTs are double stranded-DNA tethers that rupture at defined forces. One strand of the TGT attaches to a rigid plate, and the other presents a ligand for cells to bind. In this case, the ligand used is fluorescein, which interacts with an αFITC SynNotch. If the tension tolerance of the TGT is weaker than that of the NRR, the TGT will break before the NRR can open. If it is stronger, the NRR domain will unravel, and Notch activation will occur, as visualized by expression of an H2B-mCherry reporter gene.

CC(C)(C)OC(=O)N[C@H]1CCCCC/C=C\[C@@H]2C[C@@]2(C(=O)NS(=O)(=O)C2CC2)NC(=O)[C@@H]2C[C@@H](OC(=O)N3Cc4cccc(F)c4C3)CN2C1=O [danoprevir]
expression of the H2B-Citrine reporter protein (NS3 protease [1]): capable of inducing robust transcriptional responses

C[C@H](NC(=O)Cc1cc(F)cc(F)c1)C(=O)N[C@H](C(=O)OC(C)(C)C)c1ccccc1 [DAPT]
effect on leaky SynNotch receptor activation (HEK 293FT cells [2]): suppress leaky receptor activation

COc1ccc2c(O[C@@H]3C[C@H]4C(=O)N[C@]5(C(=O)O)C[C@H]5/C=C\CCCCC[C@H](NC(=O)OC5CCCC5)C(=O)N4C3)cc(-c3csc(NC(C)C)n3)nc2c1 [ciluprevir]
stabilization of full-length dCas9-NS3 TF (immunoblot) (NS3 protease [3]): dCNV is stabilized

COc1ccc2c(O[C@@H]3C[C@H]4C(=O)N[C@]5(C(=O)O)C[C@H]5/C=C\CCCCC[C@H](NC(=O)OC5CCCC5)C(=O)N4C3)cc(-c3csc(NC(C)C)n3)nc2c1 [BILN-2061]
nuclear localization of dCas9 domain (NS3 protease [3]; HeLa cells, 3 μM BILN-2061): Nuclear localized dCas9 was observed only in drug treated cells | stabilization of full-length dCas9-NS3 TF (immunoblot) (NS3 protease [3]): preservation of full-length dCas9-NS3-NLSNPR copies | BILN-2061 concentration at which TF stabilization was shown (enhanced detection) (NS3 protease [4]): 0.08 µM | expression of the H2B-Citrine reporter protein (NS3 protease [1]): capable of inducing robust transcriptional responses | preservation of intact turn-off TF proteins (western blot) (NS3 protease [5]): Intact proteins were preserved | regulation of TRE BFP and UAS H2B-Citrine reporters (NS3 protease [6]): induced concurrent TRE BFP activation and UAS H2B-Citrine repression | Notch activation of receiver cells (H2B-Citrine) in coculture (human Notch1; Dll1-NS3-mCherry sender cells): Activated receiver cells were observed only in cocultures treated with drug | surface presentation of Dll1 extracellular region (human Notch1; fixed non-permeabilized cells expressing Dll1-NS3-mCherry): Surface presentation of the Dll1 extracellular region was induced | upregulation of gene targets (UAS H2B-Citrine reporter, CXCR4) (CXCR4): induce upregulation of both gene targets in a dose-dependent manner

B1: WT NRR: "Notch's force-sensitive Negative Regulatory Region, which contains three LNR domains" (protein, listed as Homo sapiens)
chain: ILDYSFGGGAGRDIPPPLIEEACELPECQEDAGNKVCSLQCNNHACGWDGGDCSLNFNDPWKNCTQSLQCWKYFSDGHCDSQCNSAGCLFDGFDCQRAEGQCNPLYDQYCKDHFSDGHCDQGCNSAECEWDGLDCAEHVPERLAAGTLVVVVLMPPEQLRNSSFHFLRELSRVLHTNVVFKRDAHGQQMIFPYYGREEELRKHPIKRAAEGWAAPDALLGQVKASLLPGGSEGGRRRRELDPMDVRGSIVYLEIDNRQCVQASSQCFQSATDVAAFLGALASLGSLNIPYKIEAVQSETVEPPPPAQ
receptor activation on TGTs of defined strength (HEK 293FT cells [7]): activated by both 12 pN and 56 pN TGTs; also recorded: responding identically to all mechanical stimuli
